Results from patent publication US8198441B2, “Process for the preparation of novel pyridopyrazines as mTOR kinase inhibitors” (AstraZeneca AB, priority 2008, dated 2012).
Read-outs that look alike come from different tables or passages of the source.

Assays:
[1] = Stability study of the fumarate salt in the solid state; format: physicochemical
Experimental: The stability of the fumarate salt of the compound of Formula 5a in the solid state was investigated for samples stored at 25° C./60% relative humidity (RH) in double lined polyethylene bags inside a fibreboard outer for long term stability testing. […] AH (ambient humidity) in double lined polyethylene bags inside fibreboard outers. Further stress testing was performed on exposed samples at 40° C./75% RH and at ambient temperature in a light chamber (exposed to a minimum of 1.2 million lux hours visible light and 200 watt-hours/m^2 UV light), as shown in Table 5.

[2] = TIM-1 multi-compartmental in vitro model, bioaccessibility; format: in vitro ADME; details: for recovery at 10 mg/mL: TIM-1 multi-compartmental in vitro gastrointestinal model, read-out: Total recovery
Experimental: Bioaccessibility of a compound of Formula 5a in the form of a free base and a fumarate salt was assessed using a TIM-1 multi-compartmental in vitro model (TNO Quality of Life, The Netherlands).
Initial assessment of solutions and suspensions of the free base form at concentrations of 10 mg/mL and doses of 200 mg and 500 mg were performed using a standard protocol (lipid-fasted with starting gastric pH of 2 and a gastric half-time of 30 minutes).
A further study was performed with an increased initial gastric pH of 5 and a reduced gastric half-time of 20 min. In this study, 200 mg (free base equivalent) doses of 10 mg/mL suspensions of the free base and fumarate salt of the compound of Formula 5a were compared (see Table 4, FIG. 8).

## COc1ccc(-c2ccc3c(N4CCOC[C@@H]4C)nc(N4CCOC[C@@H]4C)nc3n2)cc1CO.O=C(O)/C=C/C(=O)O [Formula 5a fumarate salt, (5-{2,4-Bis[(3S)-3-methylmorpholin-4-yl]pyrido[2,3-d]pyrimidin-7-yl}-2-methoxyphenyl)methanol Fumarate salt]
[1]; 1 month, 40° C./75% RH exposed
  Assay (water and solvent-free, % w/w): 100.3 % w/w
  Organic impurities: Largest single impurity (% w/w): 0.16 % w/w
  Total organic impurities (% w/w): 0.36 % w/w
  Water content (% w/w): 5.0 % w/w
[1]; 3 months, 25° C./60% RH
  Assay (water and solvent-free, % w/w): 99.7 % w/w
  Organic impurities: Largest single impurity (% w/w): 0.16 % w/w
  Total organic impurities (% w/w): 0.31 % w/w
  Water content (% w/w): 4.5 % w/w
[1]; 3 months, 40° C./75% RH
  Assay (water and solvent-free, % w/w): 99.3 % w/w
  Organic impurities: Largest single impurity (% w/w): 0.16 % w/w
  Total organic impurities (% w/w): 0.26 % w/w
  Water content (% w/w): 5.6 % w/w
[1]; 3 months, 50° C.
  Assay (water and solvent-free, % w/w): 96.8 % w/w
  Organic impurities: Largest single impurity (% w/w): 0.16 % w/w
  Total organic impurities (% w/w): 0.44 % w/w
  Water content (% w/w): 0.6 % w/w
[1]; 25° C./60% RH, 40° C./75% RH and 50° C. AH, 3 months
  degradation on storage: no significant degradation
[1]; 10 days, light-exposed
  Assay (water and solvent-free, % w/w): 95.5 % w/w
  Organic impurities: Largest single impurity (% w/w): 0.97 % w/w
  Total organic impurities (% w/w): 2.28 % w/w
  Water content (% w/w): 5.0 % w/w
[1]; Initial
  Assay (water and solvent-free, % w/w): 99.4 % w/w
  Organic impurities: Largest single impurity (% w/w): 0.16 % w/w
  Total organic impurities (% w/w): 0.31 % w/w
  Water content (% w/w): 3.4 % w/w
[1]; light chamber, minimum 1.2 million lux hours visible and 200 watt-hours/m2 UV
  effect of exposure to light under stress conditions: darkened on exposed surfaces and a loss of assay and corresponding increase in organic impurities
[1]; stored at 50° C.
  thermal degradation: some evidence of thermal degradation
[2]; 200 mg (free base equivalent) of 10 mg/mL suspension, initial gastric pH 5, gastric half-time 20 min
  Total recovery: 95.12

## COc1ccc(-c2ccc3c(N4CCOC[C@@H]4C)nc(N4CCOC[C@@H]4C)nc3n2)cc1CO [Formula 5a free base, (5-{2,4-bis[(3S)-3-methylmorpholin-4-yl]pyrido[2,3-d]pyrimidin-7-yl}-2-methoxyphenyl)methanol]
[2]; 200 mg (free base equivalent), pH 5, 200 mg (free base equivalent) of 10 mg/mL suspension, initial gastric pH 5, gastric half-time 20 min
  recovery at 10 mg/mL: 93%
[2]; 200 mg, pH 2, 200 mg solution, 10 mg/mL, lipid-fasted, starting gastric pH 2, gastric half-time 30 min
  recovery at 10 mg/mL: 96.8%
[2]; 200 mg, pH 2, 200 mg suspension, 10 mg/mL, lipid-fasted, starting gastric pH 2, gastric half-time 30 min
  recovery at 10 mg/mL: 97.6%
[2]; 200 mg, pH 2, Table 4: 200 mg suspension, gastric pH 2
  recovery at 10 mg/mL: 97.6%
[2]; 500 mg, pH 2, 500 mg solution, 10 mg/mL, lipid-fasted, starting gastric pH 2, gastric half-time 30 min
  recovery at 10 mg/mL: 93.6%
[2]; 500 mg, pH 2, 500 mg suspension, 10 mg/mL, lipid-fasted, starting gastric pH 2, gastric half-time 30 min
  recovery at 10 mg/mL: 91.7%
